# Patent US20100015603A1, “Chimeric proteins for measuring atp concentrations in pericellular space and related screening method” (priority 2005, published 2010)
# Assays:
# [1] = target: T1, pmeLUC (Photinus pyralis, UniProt P08659, N119G/N50D); assay: Response of HEK293-pmeLUC cells to extracellular nucleotides (affinity and selectivity of the pmeLUC probe, luminescence); format: cell-based; conditions: HEK293-pmeLUC cells; for sensitivity of pmeLUC to other nucleotides: FIG. 2A
# T1 construct: expressed in transfected cells
# T1 sequence (P08659 with tags, fused parts or gaps N50D/N119G): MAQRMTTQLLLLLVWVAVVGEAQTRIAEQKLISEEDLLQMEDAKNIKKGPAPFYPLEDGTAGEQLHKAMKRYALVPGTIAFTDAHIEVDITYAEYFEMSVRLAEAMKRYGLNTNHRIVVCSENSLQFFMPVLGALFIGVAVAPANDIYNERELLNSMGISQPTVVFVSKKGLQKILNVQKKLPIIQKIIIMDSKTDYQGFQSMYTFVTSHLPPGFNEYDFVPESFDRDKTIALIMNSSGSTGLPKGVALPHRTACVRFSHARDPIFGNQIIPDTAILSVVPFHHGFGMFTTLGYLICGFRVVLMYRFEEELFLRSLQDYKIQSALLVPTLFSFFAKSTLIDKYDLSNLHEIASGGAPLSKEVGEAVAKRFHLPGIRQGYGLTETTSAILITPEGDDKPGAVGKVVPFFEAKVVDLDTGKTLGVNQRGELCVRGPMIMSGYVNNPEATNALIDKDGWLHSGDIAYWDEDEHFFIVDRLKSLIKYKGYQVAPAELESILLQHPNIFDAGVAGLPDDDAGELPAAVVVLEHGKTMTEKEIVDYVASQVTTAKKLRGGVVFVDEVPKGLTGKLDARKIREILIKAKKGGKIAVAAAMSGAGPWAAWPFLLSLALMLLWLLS
# Experimental: (§1) ATP was measured in the custom-made luminometer described by Rizzuto and co-workers (Brini et al., 1999; Jouaville et al., 1999). For experiments, cells were plated onto 13 mm coverslips and were placed in a 37° C. thermostatted chamber (diameter 15 mm, height 2 mm) and perfused with a saline solution supplemented with luciferin at a concentration of 5 μM. The chamber was held in a photomultiplier kept in a dark refrigerated (4° C.) box. Light emission was detected by a Thorn EMI photon counting board installed in an IBM-compatible computer. The board allowed storing of the data in the computer memory for further analysis. During the experiments the thermostatted chamber was continuously perfused with buffer by means of a Gilson peristaltic pump. Alternatively, ATP was measured in the supernatants using soluble luciferase in a Firezyme luminometer as previously described (Baricordi et al., 1999; Solini et al, 2004; Zanovello et al., 1990).
# Affinity of pmeLUC for ATP is rather low, with a threshold of about 10 μM, however, subsequent ATP additions elicit further increases in light emission that allow building a calibration curve (FIG. 2B). Importantly, pmeLUC is insensitive to all other nucleotides tested (ADP, UTP, UDP and GTP) (FIG. 2A).
# [2] = target: T2, rat P2X7R (Rattus norvegicus, UniProt Q64663); assay: ATP release through the P2X7 receptor in HEK293-rP2X7/pmeLUC cells, pmeLUC luminescence; format: cell-based; conditions: HEK293 cells transfected with rat P2X7R, FIG. 4A
# T2 construct: expressed in transfected cells; host or cells: HEK293 (HEK293-rP2X7/pmeLUC)
# T2 sequence (Q64663 1-595): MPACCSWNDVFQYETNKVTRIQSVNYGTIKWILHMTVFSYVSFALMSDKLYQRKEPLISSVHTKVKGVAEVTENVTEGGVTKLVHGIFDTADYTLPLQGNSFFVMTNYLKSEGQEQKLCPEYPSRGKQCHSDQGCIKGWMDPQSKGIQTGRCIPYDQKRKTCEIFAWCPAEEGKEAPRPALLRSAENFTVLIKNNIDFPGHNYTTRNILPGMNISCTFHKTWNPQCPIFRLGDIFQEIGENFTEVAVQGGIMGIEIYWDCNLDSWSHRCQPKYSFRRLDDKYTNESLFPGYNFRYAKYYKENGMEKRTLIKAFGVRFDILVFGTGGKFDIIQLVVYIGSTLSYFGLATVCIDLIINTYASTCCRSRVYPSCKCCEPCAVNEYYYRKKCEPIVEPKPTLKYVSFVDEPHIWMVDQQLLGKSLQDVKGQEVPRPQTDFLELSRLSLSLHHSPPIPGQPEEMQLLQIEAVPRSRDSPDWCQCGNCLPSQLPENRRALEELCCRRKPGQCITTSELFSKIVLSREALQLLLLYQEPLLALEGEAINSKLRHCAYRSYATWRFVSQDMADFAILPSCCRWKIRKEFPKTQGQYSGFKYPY
# Experimental: (§2) HEK293 cells were cultured in DMEM-F12 (Sigma-Aldrich). Media were supplemented with 10% heat-inactivated FBS, 100 U/ml penicillin and 100 μg/ml streptomycin (Invitrogen corporation, San Giuliano Milanese, Italy). ACN neuroblastoma cells were cultured in DMEM supplemented with MEM non-essential amino acid solution 100× (Sigma-Aldrich). HEK293 cells were transfected with the calcium phosphate method. Cells transiently expressing the pmeLUC construct were assayed 36 hours after transfection. Clones stably expressing pmeLUC or the P2X7R were generated by culture of the transfected cells in the presence of G418 (0.8 mg/ml, added 48 hours after transfection) for 3 weeks. Stable P2X7- or pmeLUC-expressing clones were kept in the continuous presence of 0.2 mg/ml of G418 sulphate (Geneticin) (Calbiochem, la Jolla, Calif.). ACN cells were transfected with pmeLUC by lipofectamine (Invitrogen) and tested 24 hours after transfection. Briefly, cells were incubated in 250 μl serum-free transfection medium (OPTIMEM) in the presence of lipofectamine-plus-DNA (0.4 μg per well). After 3 hours incubation 1 ml of DMEM plus 10% FBS supplemented with MEM non-essential amino acid solution 100× (Sigma-Aldrich) was added. Cells were assayed 24 hours after transfection. In order to allow a high level of plasma membrane expression of the transfected constructs, cells were incubated overnight in the presence of 1 mM DTT (Mezghrani et al, 2001). Furthermore, they were also kept at room temperature (21° C.) for two hours prior to transfer into the thermostated luminometer chamber.
# ATP was measured in the custom-made luminometer described by Rizzuto and co-workers (Brini et al., 1999; Jouaville et al., 1999). […] Light emission was detected by a Thorn EMI photon counting board installed in an IBM-compatible computer. […] Alternatively, ATP was measured in the supernatants using soluble luciferase in a Firezyme luminometer as previously described (Baricordi et al., 1999; Solini et al, 2004; Zanovello et al., 1990). […]
# [3] = target: T3, human P2X7R (Homo sapiens, UniProt Q99572); assay: ATP release through the P2X7 receptor in HEK293-hP2X7/pmeLUC cells, pmeLUC luminescence; format: cell-based; conditions: HEK293 cells transfected with human P2X7R, FIG. 4B
# T3 construct: expressed in transfected cells; host or cells: HEK293 (HEK293-hP2X7/pmeLUC)
# T3 sequence (Q99572 1-595): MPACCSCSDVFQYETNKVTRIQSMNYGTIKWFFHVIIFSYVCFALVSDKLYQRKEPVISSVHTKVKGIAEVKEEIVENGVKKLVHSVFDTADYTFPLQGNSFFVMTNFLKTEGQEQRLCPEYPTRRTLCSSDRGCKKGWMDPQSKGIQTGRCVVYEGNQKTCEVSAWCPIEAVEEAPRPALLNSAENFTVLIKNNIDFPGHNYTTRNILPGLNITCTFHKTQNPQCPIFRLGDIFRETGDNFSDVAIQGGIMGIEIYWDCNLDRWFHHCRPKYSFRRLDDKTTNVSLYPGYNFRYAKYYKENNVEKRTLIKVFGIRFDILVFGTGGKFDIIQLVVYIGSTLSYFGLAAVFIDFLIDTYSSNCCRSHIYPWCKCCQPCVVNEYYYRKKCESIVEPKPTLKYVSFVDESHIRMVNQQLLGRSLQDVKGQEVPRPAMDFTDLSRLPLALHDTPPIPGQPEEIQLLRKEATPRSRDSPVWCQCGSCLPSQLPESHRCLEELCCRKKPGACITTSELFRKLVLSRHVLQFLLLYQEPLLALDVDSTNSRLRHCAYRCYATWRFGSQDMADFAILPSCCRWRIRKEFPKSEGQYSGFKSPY
# Experimental: as §2, §1
# Early experiments carried out not only by the authors of the present invention had shown that supernatants from cells expressing the P2X7 receptor contained a high level of ATP, which was not due to an accelerated rate of cell lysis (Baricordi et al., 1999; Adinolfi et al., 2003; Solini et al., 2004). […] To test such hypothesis several HEK293 clones were generated stably transfected with the human or rat P2X7R (HEK293-hP2X7 or HEK293-rP2X7, respectively). These clones were then transfected with pmeLUC (HEK293-P2X7/pmeLUC).
# [4] = system: A549 pulmonary epithelial cells; assay: ATP release / photon emission in A549 pulmonary epithelial cells expressing pmeLUC probe; format: cell-based, human; conditions: ATP 5 μM to 1 mM, FIG. 7A
# Experimental: (§3) Cells cultured in flasks for cell culture (75 cm^2) were transfected with a vector containing the produced chimeric probe, by transfection techniques more suitable for the cell line under examination. As experimental model established macrophage cells, named J774, and established pulmonary epithelial cells, named […], were used after being transfected with pmeLUC probe using TransFectin (Biorad) that ensure the major percent of positive cells for these cell lines.
# (§4) 36 hours after transfection cells were removed from the bottom of flasks for trypsinization. Cell suspension was transferred in a Falcon tube (from 15 to 50 ml) and centrifuged at 1200 rpm at 20° C. and finally cell precipitate was re-suspended in DMEM medium supplemented with DTT (1 mM).
# (§5) 50 μl of suspension containing transfected cells (corresponding to about 50.000 cells) were seeded in each well of the plate. Cells were incubated overnight.
# (§6) The day after seeding cells were incubated with a saline solution (KRB: Krebs-Ringer modified buffer: 125 mM NaCl, 5 mM KCl, 1 mM Na3PO4, 1 mM MgSO4, 1 mM CaCl2, 5.5 mM glucose, 20 mM HEPES, pH 7.4, 37° C.) supplemented with luciferin (5 μM) and were directly contacted with a photomultiplier measuring photon emission by luciferase.
# [5] = system: J774 macrophage cells; assay: ATP release / photon emission in J774 macrophage cells expressing pmeLUC probe; format: cell-based, mouse; conditions: ATP 5 μM to 1 mM, FIG. 6A
# Experimental: as §3, §4, §5, §6
# [6] = system: HEK293-pmeLUC cells; format: cell-based; conditions: HEK293-pmeLUC cells, not shown
# Experimental: as §2
# ATP was measured in the custom-made luminometer described by Rizzuto and co-workers (Brini et al., 1999; Jouaville et al., 1999). […] Light emission was detected by a Thorn EMI photon counting board installed in an IBM-compatible computer. […] Alternatively, ATP was measured in the supernatants using soluble luciferase in a Firezyme luminometer as previously described (Baricordi et al., 1999; Solini et al, 2004; Zanovello et al., 1990).
structure (smiles),measurement,setting,value
O=c1ccn([C@@H]2O[C@H](COP(=O)(O)OP(=O)(O)OP(=O)(O)O)[C@@H](O)[C@H]2O)c(=O)[nH]1 [UTP],sensitivity of pmeLUC to other nucleotides,[1],insensitive
O=c1ccn([C@@H]2O[C@H](COP(=O)(O)OP(=O)(O)O)[C@@H](O)[C@H]2O)c(=O)[nH]1 [UDP],sensitivity of pmeLUC to other nucleotides,[1],insensitive
Nc1ncnc2c1ncn2[C@@H]1O[C@H](COP(=O)(O)OP(=O)(O)OP(=O)(O)O)[C@@H](O)[C@H]1O [ATP],threshold of pmeLUC for ATP (affinity),[1]; luminescence percent increase over basal,about 10 μM
same,ATP concentration at which extra-increase in luminescence over control cells is detectable,[2],10 to 50 µM
same,ATP concentration at which luminescence increase over control cells is detectable,[3],higher than 100 μM
same,photon emission by the pmeLUC probe on addition of outer ATP,[4],proportional to ATP concentration applied
same,photon emission by the pmeLUC probe on addition of outer ATP,[5],proportional to ATP concentration applied
NCCc1c[nH]cn1 [histamine],ATP release triggered by agonists of G protein-coupled receptors,[6],negligible ATP release
